Common to all, as to test: relative viability (nuclei count vs DMSO), 5 days (fraction); higher = more cells survive
Compound in one assay: COC1=CC(c2cc3ccccc3[nH]2)=N/C1=C\c1[nH]c(C)cc1C [Obatoclax]
In short, it runs like this: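 Vehicle-anchored 1536-well plates of lung cancer cell lines, held overnight at 37 °C, were pinned with five library-drug doses (not always all listed) spaced by √10. No medium change followed over the next 5 days, after which the cells were fixed, permeabilised and Hoechst-stained together and imaged at 4×. Nuclei were counted with MetaXpress, and viability is treated-well nuclei over vehicle-well nuclei, taken as a median across plates. Plates passed with control CV below 25% and at least one doubling.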

Compound in the assay “Bortezomib + Phenformin”: CC(C)C[C@H](NC(=O)[C@H](Cc1ccccc1)NC(=O)c1cnccn1)B(O)O [Bortezomib] + N=C(N)NC(=N)NCCc1ccccc1 [Phenformin] (partner 250 µM)
Summed up: (§1)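 A single step with final 0.05% Triton X-100, 1% formaldehyde and 1 ug/ml Hoechst fixed the cells and stained nuclei 5 days after treatment. Lung cancer cell lines in 1536-well plates had been treated by pin tool the day after seeding with one drug alone or a fixed anchor-drug dose plus five library-drug doses (not always all listed) in √10 steps, and nuclei were counted on 4× images. Relative viability is the ratio of nuclei in treated wells to nuclei in vehicle wells, taken as the median of duplicate plates.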

Compound in assay [1]: CC1=CC(=NN1)NC2=CC(=NC(=N2)/C=C/C3=CC=CC=C3)N4CCN(CC4)C + CC(C)C[C@H](NC(=O)[C@H](Cc1ccccc1)NC(=O)c1cnccn1)B(O)O [Bortezomib] (partner 0.002 µM)
In short, it runs like this: as §1

Compound in assay [2]: CC1=CC(=NN1)NC2=CC(=NC(=N2)/C=C/C3=CC=CC=C3)N4CCN(CC4)C + C[C@@H](Oc1cc(-c2cnn(C3CCNCC3)c2)cnc1N)c1c(Cl)ccc(F)c1Cl [Crizotinib] (partner 1 µM)
In short, it runs like this:
as §1

On to NCI-H1666, for which the relative viability in the assay with Obatoclax (0.01 µM) was determined as 0.995; with Obatoclax (0.03162 µM), 1.03; with Obatoclax (0.1 µM), 1.08; in the assay with Obatoclax (0.3162 µM) it was 0.856; with Obatoclax (1 µM), 0.517; with Bortezomib + Phenformin (first compound 0.0002 µM), 0.533. The relative viability with Bortezomib + Phenformin (first compound 0.000632 µM) worked out at 0.544; in the assay with Bortezomib + Phenformin (first compound 0.002 µM), 0.559; with Bortezomib + Phenformin (first compound 0.006325 µM) it was 0.365; in the assay with Bortezomib + Phenformin (first compound 0.02 µM), 0.307; in assay [1] (first compound 0.08 µM), 0.892; in assay [1] (first compound 0.253 µM) it was 0.925. The relative viability stood at 0.872 in assay [1] (first compound 0.8 µM); 0.55 in assay [1] (first compound 2.53 µM); 0.215 in assay [1] (first compound 8 µM); 0.969 in assay [2] (first compound 0.08 µM); 0.863 in assay [2] (first compound 0.253 µM); 0.822 in assay [2] (first compound 0.8 µM). For the same cell line, the relative viability in assay [2] (first compound 2.53 µM) is 0.453; in assay [2] (first compound 8 µM) it was 0.187.

For the cell line A-427, the relative viability in the assay with Obatoclax (0.01 µM) turned out to be 0.968; with Obatoclax (0.03162 µM), 0.972; with Obatoclax (0.1 µM), 0.86; with Obatoclax (0.3162 µM), 0.954; in the assay with Obatoclax (1 µM), 0.719; with Bortezomib + Phenformin (first compound 0.0002 µM), 0.253. Moreover, the relative viability worked out at 0.246 with Bortezomib + Phenformin (first compound 0.000632 µM); 0.339 with Bortezomib + Phenformin (first compound 0.002 µM); 0.212 with Bortezomib + Phenformin (first compound 0.006325 µM); 0.11 with Bortezomib + Phenformin (first compound 0.02 µM); 1.1 in assay [1] (first compound 0.08 µM); 1.06 in assay [1] (first compound 0.253 µM). For the same cell line, the relative viability in assay [1] (first compound 0.8 µM) was found to be 1.08; in assay [1] (first compound 2.53 µM) it was 0.635; in assay [1] (first compound 8 µM), 0.361; in assay [2] (first compound 0.08 µM) it was 0.878; in assay [2] (first compound 0.253 µM), 0.878; in assay [2] (first compound 0.8 µM), 0.937. Further, the relative viability in assay [2] (first compound 2.53 µM) came to 0.399; in assay [2] (first compound 8 µM), 0.0861.

For NCI-H1651, the relative viability turned out to be 0.954 with Obatoclax (0.01 µM); 0.957 with Obatoclax (0.03162 µM); 1.07 in the assay with Obatoclax (0.1 µM); 0.847 with Obatoclax (0.3162 µM); 0.754 in the assay with Obatoclax (1 µM); 0.354 with Bortezomib + Phenformin (first compound 0.0002 µM). Besides, the relative viability in the assay with Bortezomib + Phenformin (first compound 0.000632 µM) was 0.312; in the assay with Bortezomib + Phenformin (first compound 0.002 µM), 0.229; with Bortezomib + Phenformin (first compound 0.006325 µM) it was 0.101; with Bortezomib + Phenformin (first compound 0.02 µM), 0.106; in assay [1] (first compound 0.08 µM), 0.946; in assay [1] (first compound 0.253 µM) it was 0.892. Also, the relative viability in assay [1] (first compound 0.8 µM) is 0.865; in assay [1] (first compound 2.53 µM) it was 0.876; in assay [1] (first compound 8 µM) it was 0.448; in assay [2] (first compound 0.08 µM), 0.839; in assay [2] (first compound 0.253 µM), 0.911; in assay [2] (first compound 0.8 µM) it was 0.808. Also, the relative viability worked out at 0.738 in assay [2] (first compound 2.53 µM) and 0.482 in assay [2] (first compound 8 µM).

NCI-H520: the relative viability with Obatoclax (0.01 µM) worked out at 0.993; with Obatoclax (0.03162 µM), 0.791; in the assay with Obatoclax (0.1 µM) it was 1.07; in the assay with Obatoclax (0.3162 µM) it was 0.976; with Obatoclax (1 µM) it was 0.774; in the assay with Bortezomib + Phenformin (first compound 0.0002 µM), 0.599. Further, the relative viability with Bortezomib + Phenformin (first compound 0.000632 µM) came to 0.669; with Bortezomib + Phenformin (first compound 0.002 µM) it was 0.422; with Bortezomib + Phenformin (first compound 0.006325 µM) it was 0.213; in the assay with Bortezomib + Phenformin (first compound 0.02 µM), 0.17; in assay [1] (first compound 0.08 µM), 0.487; in assay [1] (first compound 0.253 µM) it was 0.599. Moreover, the relative viability in assay [1] (first compound 0.8 µM) was determined as 0.395; in assay [1] (first compound 2.53 µM), 0.154; in assay [1] (first compound 8 µM) it was 0.11; in assay [2] (first compound 0.08 µM) it was 0.798; in assay [2] (first compound 0.253 µM), 0.778; in assay [2] (first compound 0.8 µM), 0.473. In addition, the relative viability in assay [2] (first compound 2.53 µM) is 0.251; in assay [2] (first compound 8 µM) it was 0.0942.

With 201T, the relative viability with Obatoclax (0.01 µM) turned out to be 0.965; with Obatoclax (0.03162 µM), 0.909; with Obatoclax (0.1 µM), 0.95; with Obatoclax (0.3162 µM) it was 1.02; in the assay with Obatoclax (1 µM), 1.05; with Bortezomib + Phenformin (first compound 0.0002 µM), 0.456. The relative viability in the assay with Bortezomib + Phenformin (first compound 0.000632 µM) is 0.402; in the assay with Bortezomib + Phenformin (first compound 0.002 µM), 0.483; in the assay with Bortezomib + Phenformin (first compound 0.006325 µM), 0.44; in the assay with Bortezomib + Phenformin (first compound 0.02 µM) it was 0.24; in assay [1] (first compound 0.08 µM) it was 1.11; in assay [1] (first compound 0.253 µM), 1.17. For the same cell line, the relative viability in assay [1] (first compound 0.8 µM) was determined as 1.06; in assay [1] (first compound 2.53 µM), 1.02; in assay [1] (first compound 8 µM), 1.01; in assay [2] (first compound 0.08 µM), 1.01; in assay [2] (first compound 0.253 µM), 1.07; in assay [2] (first compound 0.8 µM), 0.965. For the same cell line, the relative viability in assay [2] (first compound 2.53 µM) worked out at 0.982; in assay [2] (first compound 8 µM), 0.786.

Take NCI-H460: the relative viability in the assay with Obatoclax (0.01 µM) is 1; with Obatoclax (0.03162 µM) it was 0.936; with Obatoclax (0.1 µM) it was 0.882; in the assay with Obatoclax (0.3162 µM) it was 0.746; with Obatoclax (1 µM), 0.56; with Bortezomib + Phenformin (first compound 0.0002 µM), 0.347. Also, the relative viability was 0.526 with Bortezomib + Phenformin (first compound 0.000632 µM); 0.554 in the assay with Bortezomib + Phenformin (first compound 0.002 µM); 0.0373 with Bortezomib + Phenformin (first compound 0.006325 µM); 0.0212 with Bortezomib + Phenformin (first compound 0.02 µM); 1.07 in assay [1] (first compound 0.08 µM); 1.1 in assay [1] (first compound 0.253 µM). For the same cell line, the relative viability in assay [1] (first compound 0.8 µM) was found to be 1; in assay [1] (first compound 2.53 µM), 0.0197; in assay [1] (first compound 8 µM), 0.0105; in assay [2] (first compound 0.08 µM), 0.948; in assay [2] (first compound 0.253 µM), 0.839; in assay [2] (first compound 0.8 µM), 0.159. Moreover, the values for the relative viability in assay [2] (first compound 2.53 µM) and in assay [2] (first compound 8 µM) were 0.0358 and 0.0091, respectively.

NCI-H596: the relative viability with Obatoclax (0.01 µM) came out at 1.01; in the assay with Obatoclax (0.03162 µM), 0.858; with Obatoclax (0.1 µM), 0.843; in the assay with Obatoclax (0.3162 µM) it was 0.691; with Obatoclax (1 µM), 0.584; in the assay with Bortezomib + Phenformin (first compound 0.0002 µM), 0.737. Moreover, the relative viability came out at 0.474 with Bortezomib + Phenformin (first compound 0.000632 µM); 0.828 in the assay with Bortezomib + Phenformin (first compound 0.002 µM); 0.267 in the assay with Bortezomib + Phenformin (first compound 0.006325 µM); 0.211 in the assay with Bortezomib + Phenformin (first compound 0.02 µM); 1.2 in assay [1] (first compound 0.08 µM); 1.01 in assay [1] (first compound 0.253 µM). Besides, the relative viability in assay [1] (first compound 0.8 µM) is 0.756; in assay [1] (first compound 2.53 µM), 0.616; in assay [1] (first compound 8 µM), 0.268; in assay [2] (first compound 0.08 µM), 0.984; in assay [2] (first compound 0.253 µM), 1.04; in assay [2] (first compound 0.8 µM), 0.857. Also, the relative viability is 0.554 in assay [2] (first compound 2.53 µM) and 0.197 in assay [2] (first compound 8 µM).

These data come from the supplement of paper PMC10307832.
